# Patent US20110091638A1, “METHOD OF ANIMAL SLAUGHTER” (priority 2007, published 2011)
# What was measured:
# [1] = tested on: Mackerel (Scomber scombrus); assay: Mackerel transferred into CO saturated seawater
# Experimental: (§1) Mackerel (Scomber scombrus) of about 700 g bodyweight were transferred from seawater into CO saturated seawater at about 16° C. in a 1 m×1 m plastic tank. CO saturation was achieved by pre-flushing the seawater (250 L) with 99.3% pure carbon monoxide (from Yara AS, Norway) for 5 minutes at 2.0 bar through two Wedge-lock diffusers (from Sterner Aqua, Norway). The CO content was monitored and never exceeded 50 ppm in the vicinity of the tank.
# [2] = tested on: Atlantic salmon (Salmo salar); assay: Atlantic salmon transferred into CO saturated seawater
# Experimental: as §1
# Atlantic salmon (Salmo salar) of 0.7 to 1.5 kg bodyweight were transferred from seawater into CO saturated seawater (as in Example 1).
# [3] = tested on: Atlantic halibut (Hippoglossus hippoglossus); assay: Atlantic halibut transferred into CO saturated seawater
# Experimental: as §1
# Atlantic halibut (Hippoglossus hippoglossus) of about 1.5 kg bodyweight were transferred into CO saturated seawater (as in Example 1).
smiles,measurement,setting,value
[C-]#[O+] [carbon monoxide],time until fish showed signs of fatigue,"[1]; about 16° C., mackerel about 700 g",about 5 minutes
same,further exposure time until fish died and turned belly up,[1]; continued exposure after signs of fatigue,5 min
same,further exposure time until fish died and turned belly up,[2]; continued exposure after anaesthesia,more than one
same,"time until fish were relaxed, sedated and finally anesthetised",[2]; salmon 0.7 to 1.5 kg,about 5 minutes
same,signs of stress or discomfort during exposure,[2]; until anaesthesia,no signs of stress or discomfort
same,further exposure time until fish died,[3]; continued exposure after loss of flight reaction,two
same,time until flight reaction was not pronounced,[3]; halibut about 1.5 kg,about 2 minutes
